Here are results for six molecules from ChEMBL document CHEMBL1201862, “PubChem BioAssay data set” (2004).

Active and inactive are the calls of the source.

For one assay, the target named is Estrogen receptor beta (Homo sapiens, UniProt Q92731).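 Also: recombinant ER-beta bound to coactivator SRC1 peptide in presence of estradiol agonist; inhibitors block coactivator peptide binding and lower the FRET signal.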
Assay [1] addresses DNA dC->dU-editing enzyme APOBEC-3A (Homo sapiens, UniProt P31941). Description: Dose Response confirmation of small molecule APOBEC3A DNA Deaminase Inhibitors via a fluorescence-based single-stranded DNA deaminase assay. [Related pubchem assays (depositor defined):AID493011, AID493024]. It counts as functional.
In assay [2] the target is DNA dC->dU-editing enzyme APOBEC-3G (Homo sapiens, UniProt Q9HC16). It counts as functional.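 Also: Dose-response counterscreen measuring inhibition of APOBEC3G DNA deaminase activity, run while confirming APOBEC3A inhibitors.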
Chain of DNA dC->dU-editing enzyme APOBEC-3G (Q9HC16 whole entry, the tested form may be a part): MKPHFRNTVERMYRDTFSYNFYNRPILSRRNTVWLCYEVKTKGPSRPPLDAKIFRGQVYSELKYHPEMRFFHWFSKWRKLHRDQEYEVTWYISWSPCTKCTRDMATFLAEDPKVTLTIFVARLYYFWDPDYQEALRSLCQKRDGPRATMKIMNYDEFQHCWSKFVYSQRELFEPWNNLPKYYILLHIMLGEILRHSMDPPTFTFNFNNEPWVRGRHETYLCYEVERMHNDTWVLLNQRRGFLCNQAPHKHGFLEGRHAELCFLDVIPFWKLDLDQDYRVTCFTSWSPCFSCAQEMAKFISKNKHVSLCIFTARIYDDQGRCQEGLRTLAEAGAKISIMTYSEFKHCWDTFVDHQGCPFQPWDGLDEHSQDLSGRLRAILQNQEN
Assay [3] deals with T1, Carboxy-terminal domain RNA polymerase II polypeptide A small phosphatase 1 (Homo sapiens, UniProt Q9GZU7).
T1 sequence (Q9GZU7 whole entry): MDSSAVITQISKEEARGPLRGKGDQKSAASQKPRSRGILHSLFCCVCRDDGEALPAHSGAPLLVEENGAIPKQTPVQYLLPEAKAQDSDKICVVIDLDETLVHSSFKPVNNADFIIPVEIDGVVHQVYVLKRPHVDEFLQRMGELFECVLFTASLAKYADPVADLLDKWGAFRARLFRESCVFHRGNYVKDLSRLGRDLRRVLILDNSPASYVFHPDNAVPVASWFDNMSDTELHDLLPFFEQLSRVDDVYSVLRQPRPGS
The assay can be described thus: inhibitors of CTDSP1, concentration-response testing, biochemical assay, absorbance-based, actives from ultra-high-throughput screening (AID 540297). It counts as functional.

In assay [4] the target is Voltage-gated inwardly rectifying potassium channel KCNH2 (Homo sapiens, UniProt Q12809). The assay can be described thus: hERG protection from proarrhythmic block, potency, dose response, cell-based, thallium flux (AID 2121). It counts as ADME.
Chain of Voltage-gated inwardly rectifying potassium channel KCNH2 (Q12809 whole entry): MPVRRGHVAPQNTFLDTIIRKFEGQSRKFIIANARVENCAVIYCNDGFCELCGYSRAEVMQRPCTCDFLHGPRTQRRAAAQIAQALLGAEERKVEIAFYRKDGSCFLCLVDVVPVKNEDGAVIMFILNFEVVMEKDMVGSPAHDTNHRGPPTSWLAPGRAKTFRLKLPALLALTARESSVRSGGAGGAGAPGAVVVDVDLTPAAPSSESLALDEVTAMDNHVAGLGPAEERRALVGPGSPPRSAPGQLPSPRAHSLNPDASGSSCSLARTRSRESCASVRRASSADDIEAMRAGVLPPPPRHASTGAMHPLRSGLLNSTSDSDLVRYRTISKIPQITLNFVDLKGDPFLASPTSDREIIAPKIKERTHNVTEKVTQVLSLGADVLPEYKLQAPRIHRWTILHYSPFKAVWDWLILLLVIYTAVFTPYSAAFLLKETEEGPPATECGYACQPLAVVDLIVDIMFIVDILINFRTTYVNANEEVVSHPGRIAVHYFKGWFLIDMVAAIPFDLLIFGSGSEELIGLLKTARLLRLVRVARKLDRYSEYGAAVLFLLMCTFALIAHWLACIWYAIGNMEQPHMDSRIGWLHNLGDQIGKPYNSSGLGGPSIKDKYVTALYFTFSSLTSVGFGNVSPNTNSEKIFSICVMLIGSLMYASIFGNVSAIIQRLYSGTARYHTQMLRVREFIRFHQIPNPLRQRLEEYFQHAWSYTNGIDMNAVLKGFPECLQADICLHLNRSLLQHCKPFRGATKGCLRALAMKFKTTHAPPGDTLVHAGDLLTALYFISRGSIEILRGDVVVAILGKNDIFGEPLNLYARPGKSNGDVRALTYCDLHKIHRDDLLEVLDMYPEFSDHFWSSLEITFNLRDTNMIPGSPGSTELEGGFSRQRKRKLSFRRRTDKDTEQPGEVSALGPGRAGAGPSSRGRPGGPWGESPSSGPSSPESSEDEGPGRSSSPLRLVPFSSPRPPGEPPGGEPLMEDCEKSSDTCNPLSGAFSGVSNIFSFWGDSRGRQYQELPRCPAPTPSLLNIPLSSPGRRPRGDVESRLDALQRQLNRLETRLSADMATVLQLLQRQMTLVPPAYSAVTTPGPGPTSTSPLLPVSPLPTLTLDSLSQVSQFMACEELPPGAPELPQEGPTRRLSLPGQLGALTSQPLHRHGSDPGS
Assay [5] concerns the target Heat shock protein HSP 90-alpha (Homo sapiens, UniProt P07900). The assay can be described thus: Luminescence-based dose response biochemical high throughput screening assay for inhibitors of the Heat Shock Protein 90 (HSP90). [Related pubchem assays: 1831 (Summary AID.), 1846 (Confirmation screen.), 1789 (Primary screen.)].
The target of assay [6] is T2, Bcl-2-related protein A1 (Mus musculus, UniProt Q07440).
T2 sequence (Q07440 whole entry): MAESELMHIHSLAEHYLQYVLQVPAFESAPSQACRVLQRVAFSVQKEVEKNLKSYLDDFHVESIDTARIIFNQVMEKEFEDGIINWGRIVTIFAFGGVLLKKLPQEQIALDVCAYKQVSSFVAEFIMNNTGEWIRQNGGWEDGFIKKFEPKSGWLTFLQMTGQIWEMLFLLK
Description: Bfl-1 binding inhibitors, SAR follow-up, biochemical, fluorescence polarization (AID 1070). A general note: Polarisation of emitted light reports the rotation of a fluorescent probe.

Assay [7] deals with Glyceraldehyde-3-phosphate dehydrogenase (Homo sapiens, UniProt P04406).
Chain of Glyceraldehyde-3-phosphate dehydrogenase (P04406 whole entry): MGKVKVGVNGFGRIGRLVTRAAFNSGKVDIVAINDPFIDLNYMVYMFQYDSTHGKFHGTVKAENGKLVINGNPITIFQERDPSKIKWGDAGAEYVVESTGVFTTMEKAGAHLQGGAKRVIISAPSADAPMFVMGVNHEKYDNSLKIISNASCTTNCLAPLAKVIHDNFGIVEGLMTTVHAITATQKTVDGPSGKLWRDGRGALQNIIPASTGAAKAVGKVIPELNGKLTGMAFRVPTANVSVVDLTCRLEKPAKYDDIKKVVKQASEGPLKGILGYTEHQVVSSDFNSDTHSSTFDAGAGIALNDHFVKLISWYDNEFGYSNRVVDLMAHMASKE
Assay [8] concerns the target T2, Bcl-2-related protein A1. The assay can be described thus: Bfl-1 inhibitors blocking BH3 peptide binding, confirmation, biochemical, TR-FRET, mouse Bfl-1 (AID 621).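 Also: TR-FRET binding of GST-Bfl-1 to FITC-labelled Bid peptide via terbium antibody.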 In general terms: TR-FRET usually uses a lanthanide donor and a delayed reading to cut background.
Assay [9] is described as follows: Concentration-dependent survival of SW480 colon cancer line, luminescence detection with CellTiter-Glo, half-maximal inhibitory concentration (AID 1117338). It counts as functional.
Assay [10] can be described thus: half-maximal inhibitory concentration for glucagon-like peptide-1 release, STC-1 cell line, dose-response (AID 1117345). It is filed as functional, cell-based.
A short description of assay [11]: HCT116 cell viability decrease, GSK3B pretreatment – CellTiter-Glo, IC50, dose response (AID 1117339). It is filed as functional. Particulars: HCT-116.
The nature of assay [12]: cytotoxicity toward Colo320 cells – cell-based, CellTiter-Glo luminescence, IC50, dose response (AID 1117334). It counts as functional. Particulars: COLO 320. In general terms: ATP-based viability assays read luminescence as a measure of living cells.
The nature of assay [13]: cytotoxicity toward HCT116 cells – cell-based, CellTiter-Glo luminescence, IC50, dose response (AID 1117332). It counts as functional. The conditions noted are these: HCT-116.
Assay [14] is described as follows: RKO cell viability reduction, dose response, CellTiter-Glo luminescence (AID 1117322). It counts as functional.
Assay [15] in a line: cytotoxicity toward HT-29 cells – cell-based, CellTiter-Glo luminescence, IC50, dose response (AID 1117330). It counts as functional.
Assay [16] in a line: Glucagon-like peptide 1 release potency, NCI-H716 cell line, dose-response, half-maximal inhibitory concentration (AID 1117344). It is filed as functional, cell-based.
Assay [17] can be described thus: SNU-C1 cell viability reduction, dose response, CellTiter-Glo luminescence (AID 1117323). It counts as functional, cell-based.
A short description of assay [18]: CellTiter-Glo luminescent dose response of DLD-1 viability loss (AID 1117352). It is filed as functional.

Chain of Estrogen receptor beta (Q92731 whole entry): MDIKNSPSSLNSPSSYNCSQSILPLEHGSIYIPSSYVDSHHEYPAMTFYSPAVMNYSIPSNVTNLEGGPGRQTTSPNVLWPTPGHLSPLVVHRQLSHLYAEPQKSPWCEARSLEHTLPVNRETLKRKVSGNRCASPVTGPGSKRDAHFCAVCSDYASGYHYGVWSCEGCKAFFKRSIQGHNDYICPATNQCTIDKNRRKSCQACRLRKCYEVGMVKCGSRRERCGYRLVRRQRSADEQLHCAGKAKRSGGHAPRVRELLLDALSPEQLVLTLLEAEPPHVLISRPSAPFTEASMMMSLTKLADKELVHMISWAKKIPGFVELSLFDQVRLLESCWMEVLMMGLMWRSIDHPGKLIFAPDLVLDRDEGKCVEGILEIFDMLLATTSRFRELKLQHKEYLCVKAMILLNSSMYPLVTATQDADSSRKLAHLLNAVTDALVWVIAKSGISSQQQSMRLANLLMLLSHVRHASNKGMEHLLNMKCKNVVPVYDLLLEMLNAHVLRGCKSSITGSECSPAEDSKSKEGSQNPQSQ
Chain of DNA dC->dU-editing enzyme APOBEC-3A (P31941 whole entry): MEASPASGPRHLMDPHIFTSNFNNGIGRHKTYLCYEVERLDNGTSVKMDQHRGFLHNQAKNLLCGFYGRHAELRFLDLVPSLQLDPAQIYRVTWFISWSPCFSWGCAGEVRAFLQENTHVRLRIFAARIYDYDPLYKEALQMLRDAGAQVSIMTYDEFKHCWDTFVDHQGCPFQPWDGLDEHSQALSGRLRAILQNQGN

The term IC50 denotes the concentration that gives 50% inhibition. Take `CCCCCCNC(=O)c1cc(-c2ccco2)nc2ccccc12`: the IC50 on Estrogen receptor beta was 2.6 µM (active); in assay [1] it was 13.6 µM (active); in assay [2], 16 µM (active); in assay [3], 5.1 µM (active).

One may read the EC50 as the concentration at which the effect is half-maximal. For the molecule `O=C(NC(=S)Nc1ncc(Br)cc1Br)c1ccccc1`, in assay [4], the EC50 was 1.46 µM (active).

For `Cc1cc(C(=O)Cn2nc(C(=O)O)c3ccccc3c2=O)c(C)n1CC(F)(F)F`, the concentration for half-maximal inhibition (IC50) in assay [5] was > 60 µM (not active).

Take `C[C@@H]1CN(C2=C(Cl)C(=O)N(c3cccc([N+](=O)[O-])c3)C2=O)CCN1`: the IC50 is 12.7 µM (active) on Bcl-2-related protein A1 [6], > 100 µM (not active) in assay [7] and 9.03 µM (active) at Bcl-2-related protein A1 [8].

For the molecule `Oc1ccc(Cl)cc1Cc1ccccc1` [CLOROPHENE], the IC50 was > 20 µM (inactive) in assay [9]; 7.62 µM (inactive) in assay [10]; > 6.67 µM (inactive) in [11]; 13 µM (inactive) in assay [12]; > 20 µM (inactive) in [13]; > 20 µM (inactive) in [14]. Moreover, the IC50 in assay [15] was > 20 µM (inactive); in assay [16] it was 33.8 µM (inactive).

For `CCn1cc(C(=O)O)c(=O)c2cnc(N3CCNCC3)nc21` [PIPEMIDIC ACID], the IC50 in [17], in [9], in [12], in [13], in assay [14] and in assay [15] was > 20 µM (inactive) in each case. In assay [18], the IC50 is > 20 µM (inactive).
